According to US8476253B2, “Amide derivative” (Daiichi Sankyo Company, Limited, priority 2009, dated 2013):
pKi: −log10 of the molar value. Structures can show the parent of a compound that is named as a salt. Where two headings read alike, the source gives them in different places.

Key:
human NK2 receptor = molecular target: T1, human NK2 receptor (Homo sapiens, UniProt P21452); assay: Test for binding to human NK2 receptor
T1 construct: expressed in transfected cells; host or cells: COS cells
T1 sequence (P21452 1-398): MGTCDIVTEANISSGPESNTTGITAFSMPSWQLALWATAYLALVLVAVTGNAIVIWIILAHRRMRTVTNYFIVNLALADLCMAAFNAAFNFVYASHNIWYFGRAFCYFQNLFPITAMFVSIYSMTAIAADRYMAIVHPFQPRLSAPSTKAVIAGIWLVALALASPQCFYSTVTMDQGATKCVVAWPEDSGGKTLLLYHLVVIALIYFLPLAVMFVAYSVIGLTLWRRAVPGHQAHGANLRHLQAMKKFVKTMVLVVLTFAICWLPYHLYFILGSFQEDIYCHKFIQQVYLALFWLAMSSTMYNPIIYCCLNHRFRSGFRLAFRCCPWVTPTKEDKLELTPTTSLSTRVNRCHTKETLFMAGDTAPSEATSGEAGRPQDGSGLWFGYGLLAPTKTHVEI
Description: A solution of cryopreserved COS cells expressing human NK2 receptor was diluted with a buffer (50 mM tris-hydrochloride containing 0.04% of bovine serum albumin [BSA], pH 7.4) to obtain a concentration of 5.0×10^5 cells/mL and used as a crude membrane sample.
[^3H]SR 48968 (GE Healthcare Japan Corporation) was diluted with a mixture of 50 mM of tris-hydrochloride (pH 7.4), 6 mM of manganese chloride tetrahydrate, 800 μg/mL of BSA, 8 μg/mL of chymostatin, 8 μg/mL of leupeptin, 80 μg/mL of bacitracin, and 20 μg/mL of phosphoramidon. […] After the reaction, the membrane components were collected on a GF/B glass fiber filter paper (Whatman; Biomedical Research and Development Laboratories, Inc.) with an automated filtration system (Brandel; Biomedical Research and Development Laboratories, Inc.). The glass fiber filter paper was pretreated with a 0.1% polyethylenimine solution for 4 hours or longer to minimize non-specific binding. The filter collecting the membrane components was transferred to a small-size plastic vial containing 3 mL of Pico-Fluor, and the radioactivity was measured with a liquid scintillation counter (Tri-Carb 2900TR or 2300TR; Perkin Elmer).
The effect of binding to the NK2 receptor was calculated as the affinity (Ki) of the test substance for the NK2 receptor from a 50% binding dose (IC50) and the affinity (Kd) of [^3H]SR 48968 for the NK2 receptor.

muscarine M3 receptor = assay: Effect of suppressing methacholine-induced airway contraction (in vivo, intratracheal administration); parameters: species or system guinea pig; conditions: guinea pigs, intratracheal administration 60 minutes before 30 μg/kg i.v. methacholine; AUC of increase in airway pressure over 10 minutes
Description: Using healthy guinea pigs (body weight, 350 to 550 g; Hartley male guinea pigs), the effect of suppressing airway contraction induced by methacholine, which is a muscarine receptor agonist, was examined by a modified method of Konzett-Roessler (Naunyn-Schmiedebergs Arch. Exp. Pathol. Pharmakol. 195, 71 [1940]) using airway pressure as an indicator.
A tracheal cannula and a venous cannula were attached to a guinea pig anesthetized with pentobarbital (50 mg/mL of solution, 0.40 to 0.50 mL/body, subcutaneous administration). An arterial cannula filled with heparin-containing physiological saline (100 U/mL) was further attached, and blood pressure and heart rate were monitored via an amplifier and an instantaneous heart rate meter. Subsequently, gallamine (20 mg/body, intravenous administration) was administered to terminate spontaneous breathing, and then 10 mL/kg of positive pressure breathing (Ugo-Basile Biological Research Apparatus, Cat. No. 7025) was rapidly performed at 60 times/min. The airway pressure during artificial breathing was detected with a pressure transducer (TP-200T or TP-400T; Nihon Kohden Corporation) attached to a side branch of the tracheal cannula, amplified (AP-601G; Nihon Kohden Corporation), and recorded in a recorder. After the airway pressure, blood pressure, and heart rate were stabilized, 30 μg/kg of methacholine was intravenously administered from the venous cannula to induce airway contraction, and the airway pressure was measured for the following 10 minutes.
A test substance was dissolved in 5% glucose solution, and a 0.5 mL/kg solution was administered intratracheally with an intratracheal administration apparatus (model 1A-1B; Penn-Century, Inc.) 60 minutes before stimulation with methacholine.
The AUC of increase in the airway pressure over 10 minutes after administration of methacholine was measured as the intensity of methacholine-induced airway contraction and calculated as an ID50 value from the inhibition rate based on the value of the control group (a 5% glucose solution intratracheal administration group).

human M3 receptor = molecular target: T2, human M3 receptor (Homo sapiens, UniProt P20309); assay: Test for binding to human M3 receptor
T2 construct: expressed in transfected cells; host or cells: CHO cells
T2 sequence (P20309 whole entry): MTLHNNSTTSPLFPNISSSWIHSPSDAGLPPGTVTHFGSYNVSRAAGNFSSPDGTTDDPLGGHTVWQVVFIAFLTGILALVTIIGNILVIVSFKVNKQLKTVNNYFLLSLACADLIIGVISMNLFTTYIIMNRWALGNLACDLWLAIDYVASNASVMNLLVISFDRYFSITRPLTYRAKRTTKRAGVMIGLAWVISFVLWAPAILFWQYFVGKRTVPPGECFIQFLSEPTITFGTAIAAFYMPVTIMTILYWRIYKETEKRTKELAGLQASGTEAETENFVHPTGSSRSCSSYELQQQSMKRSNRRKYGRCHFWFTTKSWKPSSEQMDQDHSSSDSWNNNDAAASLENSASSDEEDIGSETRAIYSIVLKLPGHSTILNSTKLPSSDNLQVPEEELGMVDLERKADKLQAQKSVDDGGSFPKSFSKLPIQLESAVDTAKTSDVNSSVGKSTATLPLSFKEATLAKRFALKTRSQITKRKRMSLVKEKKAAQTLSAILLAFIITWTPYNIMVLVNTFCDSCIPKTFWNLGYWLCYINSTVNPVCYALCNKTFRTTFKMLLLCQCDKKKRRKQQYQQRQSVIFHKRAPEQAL
Description: A solution of cryopreserved CHO cells expressing human M3 receptor was diluted with a buffer (50 mM tris-hydrochloride containing 0.5 mM of EDTA, pH 7.4) to obtain 5.0×10^5 of cells/mL and used as a crude membrane sample.
[N-methyl-^3H]-(−)-Scopolamine methyl chloride (GE Healthcare Japan Corporation) was diluted with 50 mM of tris-hydrochloride containing 0.5 mM of EDTA (pH 7.4), a test substance and 250 μL of the crude membrane sample solution were added to 250 μL of the mixture, and the mixture was incubated at room temperature for 60 minutes. […] The glass fiber filter paper was pretreated with a 0.1% polyethylenimine solution for 4 hours or longer to minimize non-specific binding. The filter collecting membrane components was transferred to a small-size plastic vial containing 3 mL of Pico-Fluor, and the radioactivity was measured with a liquid scintillation counter (Tri-Carb 2900TR or 2300TR; Perkin Elmer).
The effect of binding to the M3 receptor was calculated as the affinity (Ki) of the test substance for the M3 receptor from a 50% binding dose (IC50) and the affinity (Kd) of [N-methyl-^3H]-(−)-Scopolamine methyl chloride for the M3 receptor.

substance P receptor = molecular target: T3, substance P receptor (Cavia porcellus, UniProt P30547); assay: Test for binding to guinea-pig substance P receptor (crude lung membrane sample); conditions: crude guinea-pig lung membrane sample, [3H]substance P; Ki from IC50 and Kd; read-out: Ki
T3 construct: A preparation of a crude lung membrane sample was prepared; from tissue; host or cells: guinea-pig lung (crude membrane sample)
T3 sequence (P30547 whole entry): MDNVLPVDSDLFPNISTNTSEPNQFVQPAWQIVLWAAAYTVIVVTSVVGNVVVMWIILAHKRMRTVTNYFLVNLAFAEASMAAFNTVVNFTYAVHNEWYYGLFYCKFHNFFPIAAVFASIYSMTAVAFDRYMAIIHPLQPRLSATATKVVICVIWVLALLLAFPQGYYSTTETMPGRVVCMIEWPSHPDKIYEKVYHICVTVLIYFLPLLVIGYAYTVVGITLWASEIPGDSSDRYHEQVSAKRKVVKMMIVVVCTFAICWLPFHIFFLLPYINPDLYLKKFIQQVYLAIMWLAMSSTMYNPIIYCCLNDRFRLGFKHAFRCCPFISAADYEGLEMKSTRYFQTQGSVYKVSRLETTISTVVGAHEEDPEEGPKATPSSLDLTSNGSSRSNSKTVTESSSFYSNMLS
Description: A preparation of a crude lung membrane sample was prepared, and a test for binding of a test substance to the sample was performed according to the method described in EP0336230A2.
The binding effect of the test substance to a substance P receptor was calculated as an affinity (Ki) of the test substance for the substance P receptor from a 50% binding concentration (IC50) and an affinity (Kd) of [^3H]substance P for the substance P receptor.

[1] = COS cells expressing human NK2 receptor, [3H]SR 48968 1 nM, Ki from IC50 and Kd, read-out: Ki
[2] = CHO cells expressing human M3 receptor, [N-methyl-3H]-(-)-Scopolamine methyl chloride 0.5 nM, Ki from IC50 and Kd, read-out: Ki

| Compound | pKi (human NK2 receptor; [1]) | ID50 (muscarine M3 receptor) | pKi (human M3 receptor; [2]) | pKi (substance P receptor) | pKi (human NK2 receptor) | pKi (human M3 receptor) |
| --- | --- | --- | --- | --- | --- | --- |
| CN(CCN1CCC(OC(=O)Nc2ccccc2-c2ccccc2)CC1)C(=O)CCCCCNc1ccc(C(=O)N(C)CCCN(C)C(=O)CO[C@H]2Cc3ccccc3C23CCN(CC[C@@]2(c4ccc(F)cc4)CN(C(=O)c4cc(C(F)(F)F)cc(C(F)(F)F)c4)CO2)CC3)s1 [Example 4, 1-(2-{[6-({5-[{3-[({[(2S)-1′-{2-[(5R)-3-[3,5-Bis(trifluoromethyl)benzoyl]-5-(4-fluorophenyl)-1,3-oxazolidin-5-yl]ethyl}-2,3-dihydrospiro[indene-1,4′-piperidin]-2-yl]oxy}acetyl)(methyl)amino]propyl}(methyl)carbamoyl]-2-thienyl}amino)hexanoyl](methyl)amino}ethyl)piperidin-4-yl biphenyl-2-ylcarbamate] | 9.21 | 0.0252 mg/kg | 8.68 | 8.74 | – | – |
| CN(CCN1CCC(OC(=O)Nc2ccccc2-c2ccccc2)CC1)C(=O)CCCCCNc1ccc(NC(=O)CCCN(C)C(=O)CO[C@H]2Cc3ccccc3C23CCN(CC[C@@]2(c4ccc(F)cc4)CN(C(=O)c4cc(C(F)(F)F)cc(C(F)(F)F)c4)CO2)CC3)cc1 [Example 82, 1-{2-[(6-{[4-({4-[({[(2S)-1′-{2-[(5R)-3-[3,5-Bis(trifluoromethyl)benzoyl]-5-(4-fluorophenyl)-1,3-oxazolidin-5-yl]ethyl}-2,3-dihydrospiro[indene-1,4′-piperidin]-2-yl]oxy}acetyl)(methyl)amino]butanoyl}amino)phenyl]amino}hexanoyl)(methyl)amino]ethyl}piperidin-4-yl biphenyl-2-ylcarbamate trihydrochloride] | – | – | – | 8.35 | 9.22 | 8.80 |
| Cc1cc(NCCCCCC(=O)N(C)CCN2CCC(OC(=O)Nc3ccccc3-c3ccccc3)CC2)sc1C(=O)N(C)CCN(C)C(=O)CO[C@H]1Cc2ccccc2C12CCN(CC[C@@]1(c3ccc(F)cc3)CN(C(=O)c3cc(C(F)(F)F)cc(C(F)(F)F)c3)CO1)CC2 [Example 89, 1-(2-{[6-({5-[{2-[({[(2S)-1′-{2-[(5R)-3-[3,5-Bis(trifluoromethyl)benzoyl]-5-(4-fluorophenyl)-1,3-oxazolidin-5-yl]ethyl}-2,3-dihydrospiro[indene-1,4′-piperidin]-2-yl]oxy}acetyl)(methyl)amino]ethyl}(methyl)carbamoyl]-4-methyl-2-thienyl}amino)hexanoyl](methyl)amino}ethyl)piperidin-4-yl biphenyl-2-ylcarbamate] | 9.12 | – | 8.92 | 9.13 | – | – |
| Cc1nc(N(C)CCCCCC(=O)N(C)CCN2CCC(OC(=O)Nc3ccccc3-c3ccccc3)CC2)sc1C(=O)N(C)CCCN(C)C(=O)CO[C@H]1Cc2ccccc2C12CCN(CC[C@@]1(c3ccc(F)cc3)CN(C(=O)c3cc(C(F)(F)F)cc(C(F)(F)F)c3)CO1)CC2 [Example 106, 1-{2-[{6-[{5-[{3-[({[(2S)-1′-{2-[(5R)-3-[3,5-Bis(trifluoromethyl)benzoyl]-5-(4-fluorophenyl)-1,3-oxazolidin-5-yl]ethyl}-2,3-dihydrospiro[indene-1,4′-piperidin]-2-yl]oxy}acetyl)(methyl)amino]propyl}(methyl)carbamoyl]-4-methyl-1,3-thiazol-2-yl}(methyl)amino]hexanoyl}(methyl)amino]ethyl}piperidin-4-yl biphenyl-2-ylcarbamate trihydrochloride] | – | – | – | 8.51 | 9.47 | 8.89 |
| Cc1nc(NCCCCCC(=O)N(C)CCN2CCC(OC(=O)Nc3ccccc3-c3ccccc3)CC2)sc1C(=O)N(C)CCN(C)C(=O)CO[C@H]1Cc2ccccc2C12CCN(CC[C@@]1(c3ccc(F)cc3)CN(C(=O)c3cc(C(F)(F)F)cc(C(F)(F)F)c3)CO1)CC2 [Example 107, 1-(2-{[6-({5-[{2-[({[(2S)-1′-{2-[(5R)-3-[3,5-Bis(trifluoromethyl)benzoyl]-5-(4-fluorophenyl)-1,3-oxazolidin-5-yl]ethyl}-2,3-dihydrospiro[indene-1,4′-piperidin]-2-yl]oxy}acetyl)(methyl)amino]ethyl}(methyl)carbamoyl]-4-methyl-1,3-thiazol-2-yl}amino)hexanoyl](methyl)amino}ethyl)piperidin-4-yl biphenyl-2-ylcarbamate trihydrochloride] | – | – | – | 8.92 | 9.23 | 8.85 |
| Cc1nc(N(C)CCCCCC(=O)N(C)CCN2CCC(OC(=O)Nc3ccccc3-c3ccccc3)CC2)sc1C(=O)N(C)CCN(C)C(=O)CO[C@H]1Cc2ccccc2C12CCN(CC[C@@]1(c3ccc(F)cc3)CN(C(=O)c3cc(C(F)(F)F)cc(C(F)(F)F)c3)CO1)CC2 [Example 108, 1-{2-[{6-[{5-[{2-[({[(2S)-1′-{2-[(5R)-3-[3,5-Bis(trifluoromethyl)benzoyl]-5-(4-fluorophenyl)-1,3-oxazolidin-5-yl]ethyl}-2,3-dihydrospiro[indene-1,4′-piperidin]-2-yl]oxy}acetyl)(methyl)amino]ethyl}(methyl)carbamoyl]-4-methyl-1,3-thiazol-2-yl}(methyl)amino]hexanoyl}(methyl)amino]ethyl}piperidin-4-yl biphenyl-2-ylcarbamate trihydrochloride] | – | – | – | 8.89 | 9.10 | 8.52 |
